Test results from patent US10508120B2, “TYK2 inhibitors and uses thereof” (Nimbus Lakshmi, Inc., priority 2017, dated 2019).
pIC50, pKd: −log10 of the molar value.

Key:
[1] = molecular target: Tyk2 kinase domain (DH1) (Homo sapiens (Human), UniProt P29597); test: Tyk2 Radioactive Kinase Assay; type: biochemical; details: compound at 10 μM, ATP 10 μM; for inhibition at 10 µM: read-out: Tyk2 JH1% Inhibition @ 10 μM
In short: (§1)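 Compounds were tested at a single concentration of 10 μM in a radiometric kinase format against each isolated kinase domain. Activity is reported as percent inhibition at that concentration.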

[2] = molecular target: human TYK2 (JH2domain-pseudokinase) (Homo sapiens (Human), UniProt P29597); test: TYK2 JH2 Domain Binding Assay (KINOMEscan)
In short: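 Displacement of a DNA-tagged TYK2 JH2 fusion (human, aa G556–D888, HEK293 extract, <0.1 nM) from ligand-coated beads over 1 h at RT; binding buffer PBS/0.05% Tween 20/10 mM DTT/0.1% BSA.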

[3] = molecular target: Tyk2/JAK2 (heterodimeric complex) (Homo sapiens (Human), UniProt P29597); test: IL-12 Induced pSTAT4 in Human PBMC; type: cell-based; details: 1.7 ng/mL IL-12
Text: The IL-12 Induced pSTAT4 assay evaluates the inhibition of IL-12 induced STAT4 phophorylation mediated by Tyk2/JAK2 (heterodimeric complex).

[4] = molecular target: JAK2 kinase domain (JH1) (Homo sapiens (Human), UniProt O60674); test: JAK2 Radioactive Kinase Assay; type: biochemical; details: compound at 10 μM, ATP 10 μM; for inhibition at 10 µM: read-out: JAK2 JH1% Inhibition @ 10 μM
In short: as §1

[5] = molecular target: JAK2/JAK2 homdimeric complex (Homo sapiens (Human), UniProt O60674); test: GM-CSF Induced pSTAT5 in Human PBMC; type: cell-based; details: GM-CSF 5 ng/mL for 20 minutes, pSTAT5 by MSD, read-out: PBMC_GMCSF_pSTAT5 IC50
JAK2/JAK2 homdimeric complex, sequence (O60674 whole entry): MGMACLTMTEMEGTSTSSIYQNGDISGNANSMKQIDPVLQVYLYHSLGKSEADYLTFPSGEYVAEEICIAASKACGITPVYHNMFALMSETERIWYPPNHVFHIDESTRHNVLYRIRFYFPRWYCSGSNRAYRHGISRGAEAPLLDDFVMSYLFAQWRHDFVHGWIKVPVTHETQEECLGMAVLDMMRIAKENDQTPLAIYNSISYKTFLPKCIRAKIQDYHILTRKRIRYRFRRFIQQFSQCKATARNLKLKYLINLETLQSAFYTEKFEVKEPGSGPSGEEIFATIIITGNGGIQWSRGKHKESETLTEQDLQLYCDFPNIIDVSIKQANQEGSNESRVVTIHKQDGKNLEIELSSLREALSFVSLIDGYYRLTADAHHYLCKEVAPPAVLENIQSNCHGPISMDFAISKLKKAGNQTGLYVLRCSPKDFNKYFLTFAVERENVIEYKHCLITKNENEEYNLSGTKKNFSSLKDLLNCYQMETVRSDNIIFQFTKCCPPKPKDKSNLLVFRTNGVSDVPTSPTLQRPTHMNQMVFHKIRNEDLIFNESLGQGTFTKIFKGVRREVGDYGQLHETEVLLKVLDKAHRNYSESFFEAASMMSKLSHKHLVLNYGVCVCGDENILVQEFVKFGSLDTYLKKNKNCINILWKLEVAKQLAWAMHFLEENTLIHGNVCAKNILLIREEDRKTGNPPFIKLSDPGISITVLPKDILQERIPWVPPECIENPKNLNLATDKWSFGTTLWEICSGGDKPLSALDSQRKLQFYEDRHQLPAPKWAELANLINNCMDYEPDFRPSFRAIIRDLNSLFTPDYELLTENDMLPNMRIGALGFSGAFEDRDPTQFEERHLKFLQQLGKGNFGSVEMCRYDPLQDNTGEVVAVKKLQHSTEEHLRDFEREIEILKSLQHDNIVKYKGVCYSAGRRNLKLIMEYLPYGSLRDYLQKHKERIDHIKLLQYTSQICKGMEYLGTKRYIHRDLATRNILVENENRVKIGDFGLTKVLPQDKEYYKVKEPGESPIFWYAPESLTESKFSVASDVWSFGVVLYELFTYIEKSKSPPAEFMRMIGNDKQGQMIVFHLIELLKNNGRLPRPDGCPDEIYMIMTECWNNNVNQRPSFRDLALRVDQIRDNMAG
JAK2/JAK2 homdimeric complex, sequence (P32927 17-897 partner): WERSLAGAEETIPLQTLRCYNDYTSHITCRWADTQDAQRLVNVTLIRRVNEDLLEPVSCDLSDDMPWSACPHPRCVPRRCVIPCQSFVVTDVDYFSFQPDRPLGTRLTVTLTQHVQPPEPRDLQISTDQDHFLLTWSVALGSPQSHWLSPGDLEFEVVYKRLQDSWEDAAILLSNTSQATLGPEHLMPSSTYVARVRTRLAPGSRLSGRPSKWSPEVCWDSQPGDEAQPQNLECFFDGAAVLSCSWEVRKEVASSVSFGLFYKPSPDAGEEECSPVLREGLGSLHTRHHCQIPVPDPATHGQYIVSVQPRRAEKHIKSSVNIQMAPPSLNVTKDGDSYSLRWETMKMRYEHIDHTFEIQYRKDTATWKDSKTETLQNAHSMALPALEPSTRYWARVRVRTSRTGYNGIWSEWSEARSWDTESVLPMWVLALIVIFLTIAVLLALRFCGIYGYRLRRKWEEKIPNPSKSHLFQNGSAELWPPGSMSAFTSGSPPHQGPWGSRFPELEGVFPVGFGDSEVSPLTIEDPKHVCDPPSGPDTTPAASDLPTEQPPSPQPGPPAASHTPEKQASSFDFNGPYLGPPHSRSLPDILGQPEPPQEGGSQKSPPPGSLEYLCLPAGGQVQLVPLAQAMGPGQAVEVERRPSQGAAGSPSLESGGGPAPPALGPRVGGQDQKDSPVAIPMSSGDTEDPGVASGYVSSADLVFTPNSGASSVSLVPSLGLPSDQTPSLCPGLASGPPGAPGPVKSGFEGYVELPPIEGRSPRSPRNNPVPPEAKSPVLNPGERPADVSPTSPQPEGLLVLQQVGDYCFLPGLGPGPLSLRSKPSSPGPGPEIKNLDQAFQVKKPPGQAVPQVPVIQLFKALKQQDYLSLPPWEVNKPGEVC

JAK2 kinase domain (JH1), sequence (O60674 849-1124): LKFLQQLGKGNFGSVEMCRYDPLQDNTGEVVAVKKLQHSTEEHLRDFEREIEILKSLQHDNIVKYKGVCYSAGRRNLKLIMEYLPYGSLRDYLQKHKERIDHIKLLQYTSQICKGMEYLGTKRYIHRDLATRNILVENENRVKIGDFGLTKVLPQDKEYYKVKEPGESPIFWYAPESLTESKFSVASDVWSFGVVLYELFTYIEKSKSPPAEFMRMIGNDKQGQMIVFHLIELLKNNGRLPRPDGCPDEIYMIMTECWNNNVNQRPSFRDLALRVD
human TYK2 (JH2domain-pseudokinase), sequence (P29597 556-888): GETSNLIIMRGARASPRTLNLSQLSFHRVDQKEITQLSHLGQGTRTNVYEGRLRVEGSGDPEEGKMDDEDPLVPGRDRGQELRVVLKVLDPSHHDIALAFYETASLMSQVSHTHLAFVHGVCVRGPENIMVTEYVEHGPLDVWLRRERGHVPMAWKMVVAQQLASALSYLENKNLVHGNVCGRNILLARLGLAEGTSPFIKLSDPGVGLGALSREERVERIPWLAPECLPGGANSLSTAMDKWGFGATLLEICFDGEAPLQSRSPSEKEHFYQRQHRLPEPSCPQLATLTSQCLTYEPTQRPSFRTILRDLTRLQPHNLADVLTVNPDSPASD
Tyk2 kinase domain (DH1), sequence (P29597 897-1176): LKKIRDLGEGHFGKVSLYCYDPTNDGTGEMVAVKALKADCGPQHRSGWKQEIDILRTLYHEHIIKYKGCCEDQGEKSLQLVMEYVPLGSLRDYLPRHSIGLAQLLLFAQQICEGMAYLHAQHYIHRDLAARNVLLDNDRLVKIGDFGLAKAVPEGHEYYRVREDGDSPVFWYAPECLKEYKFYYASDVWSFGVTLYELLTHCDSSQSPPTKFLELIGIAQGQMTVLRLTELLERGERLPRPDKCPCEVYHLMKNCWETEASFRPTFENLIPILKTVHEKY
Tyk2/JAK2 (heterodimeric complex), sequence (P29597 whole entry, other chains not shown): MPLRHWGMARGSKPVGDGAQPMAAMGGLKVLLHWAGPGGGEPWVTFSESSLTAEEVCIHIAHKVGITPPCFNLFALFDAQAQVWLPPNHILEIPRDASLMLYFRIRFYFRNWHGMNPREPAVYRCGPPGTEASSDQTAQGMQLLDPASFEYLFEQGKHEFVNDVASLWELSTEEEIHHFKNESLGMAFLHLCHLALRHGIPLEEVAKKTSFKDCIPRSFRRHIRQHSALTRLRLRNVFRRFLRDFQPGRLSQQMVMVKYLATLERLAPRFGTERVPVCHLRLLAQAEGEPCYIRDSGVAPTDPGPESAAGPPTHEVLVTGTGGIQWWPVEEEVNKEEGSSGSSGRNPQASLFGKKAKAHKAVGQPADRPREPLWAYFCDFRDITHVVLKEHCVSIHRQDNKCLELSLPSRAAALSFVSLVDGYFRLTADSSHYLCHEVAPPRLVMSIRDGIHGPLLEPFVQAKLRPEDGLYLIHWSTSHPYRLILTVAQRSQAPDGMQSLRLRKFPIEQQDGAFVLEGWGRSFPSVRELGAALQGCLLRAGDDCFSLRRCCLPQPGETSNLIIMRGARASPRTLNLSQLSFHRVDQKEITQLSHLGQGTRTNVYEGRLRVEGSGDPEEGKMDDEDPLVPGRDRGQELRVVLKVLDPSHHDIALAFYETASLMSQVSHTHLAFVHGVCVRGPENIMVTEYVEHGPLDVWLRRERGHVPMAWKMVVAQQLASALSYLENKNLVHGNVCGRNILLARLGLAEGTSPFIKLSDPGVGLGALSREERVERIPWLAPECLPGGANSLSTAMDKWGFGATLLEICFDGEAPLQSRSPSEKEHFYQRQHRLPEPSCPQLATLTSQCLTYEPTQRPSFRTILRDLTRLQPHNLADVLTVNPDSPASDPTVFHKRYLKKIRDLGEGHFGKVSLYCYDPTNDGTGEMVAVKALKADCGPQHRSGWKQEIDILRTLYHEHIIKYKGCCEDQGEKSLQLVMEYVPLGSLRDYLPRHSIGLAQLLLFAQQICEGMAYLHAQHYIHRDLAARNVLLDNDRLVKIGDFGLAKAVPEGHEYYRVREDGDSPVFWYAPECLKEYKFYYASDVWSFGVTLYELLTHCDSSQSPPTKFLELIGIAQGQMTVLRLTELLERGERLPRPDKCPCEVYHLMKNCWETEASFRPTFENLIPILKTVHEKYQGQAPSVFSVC

Row | SMILES | pKd [2] | pIC50 [3] | pIC50 [5] | inhibition at 10 µM [1] [%] | inhibition at 10 µM [4] [%] | Tyk2 JH1% Inhibition @ 10 μM [1] | JAK2 JH1% Inhibition @ 10 μM [4]
1 | CNc1cc(-c2cn(C(C)C)c3ncccc23)nc2c(C(=O)N[C@H]3CC[C@@H]3O)cnn12 [I-639] | > 9.70 | > 7.00 | < 4.90 |  |  | A (percent inhibition at 10 μM lower than 50) | A (percent inhibition at 10 μM lower than 50)
2 | CNc1cc(-c2cn(C(C)C)c3ncccc23)nc2c(C(=O)N[C@@H]3CC[C@H]3O)cnn12 [I-640] | > 9.70 | > 7.00 | < 4.90 | < 50 | < 50 |  | 
3 | CNc1cc(Nc2cccn([C@H]3CC[C@](C)(OC)CC3)c2=O)nc2c(C(=O)N[C@@H]3CC[C@@H]3O)cnn12 [I-670, N-(2-hydroxycyclobutyl)-5-((1-((1R,4S)-4-methoxy-4-methylcyclohexyl)-2-oxo-1,2-dihydropyridin-3-yl)amino)-7-(methylamino)pyrazolo[1,5-a]pyrimidine-3-carboxamide] | > 9.70 | > 7.00 | < 4.30 | < 50 | < 50 |  | 
4 | CNc1cc(Nc2cccn(-c3ncc(OC)cc3F)c2=O)nc2c(C(=O)N[C@H]3C[C@H]3F)cnn12 [I-673] | > 9.70 | > 7.00 | < 4.30 | < 50 | < 50 |  | 
5 | CNc1cc(Nc2cccn(-c3ncc(C)s3)c2=O)nc2c(C(=O)N[C@@H]3CC[C@@H]3O)cnn12 [I-677] | > 9.70 | > 7.00 | < 5.60 | < 50 | < 50 |  | 
6 | CNc1cc(Nc2cccn(-c3ccccn3)c2=O)nc2c(C(=O)NC3CC3)cnn12 [I-680] | > 9.70 | > 7.00 | < 4.90 | < 50 | < 50 |  | 
7 | CNc1cc(Nc2cccn(-c3ccccn3)c2=O)nc2c(C(=O)N[C@H]3C[C@H]3F)cnn12 [I-681] | > 9.70 | > 7.00 | < 4.90 | < 50 | < 50 |  | 
8 | CNc1cc(Nc2cccn(-c3cnc(C)o3)c2=O)nc2c(C(=O)N[C@H]3C[C@H]3F)cnn12 [I-718] | > 9.70 | > 7.00 | < 4.90 | < 50 | < 50 |  | 
9 | CNc1cc(Nc2cccn([C@H]3CC[C@](C)(OC)CC3)c2=O)nc2c(C(=O)N[C@@H]3CC[C@@H]3O)cnn12 [I-722, N-((1S,2R)-2-hydroxycyclobutyl)-5-((1-((1R,4S)-4-methoxy-4-methylcyclohexyl)-2-oxo-1,2-dihydropyridin-3-yl)amino)-7-(methylamino)pyrazolo[1,5-a]pyrimidine-3-carboxamide] | > 9.70 | > 7.00 | < 4.90 |  |  | A (percent inhibition at 10 μM lower than 50) | A (percent inhibition at 10 μM lower than 50)
10 | CNc1cc(Nc2cccn(-c3cccnc3)c2=O)nc2c(C(=O)N[C@@H]3C[C@@H]3F)cnn12 [I-748] | > 9.70 | > 7.00 | < 5.60 | < 50 | < 50 |  | 
11 | CNc1cc(Nc2cccn([C@@H]3CCCOC3)c2=O)nc2c(C(=O)N[C@H]3CC[C@H]3O)cnn12 [I-751] | > 9.70 | > 7.00 | < 4.90 | < 50 | < 50 |  | 
12 | CNc1cc(Nc2cc(Cl)cn(C3CCCN(C)C3)c2=O)nc2c(C(=O)N[C@@H]3C[C@@H]3F)cnn12 (some centres unmarked) [I-759] | > 9.70 | > 7.00 | < 4.30 | < 50 | < 50 |  | 
13 | CNc1cc(Nc2cccn(-c3cnco3)c2=O)nc2c(C(=O)N[C@@H]3C[C@@H]3F)cnn12 [I-762] | > 9.70 | > 7.00 | < 5.60 | < 50 | < 50 |  | 
14 | CNc1cc(Nc2cc(Cl)cn([C@H]3CCCOC3)c2=O)nc2c(C(=O)N[C@@H]3C[C@@H]3F)cnn12 [I-772] | > 9.70 | > 7.00 | < 6.52 | < 50 | < 50 |  | 

The next lines start with results.

Row | pKd [2] | pIC50 [3] | pIC50 [5] | inhibition at 10 µM [1] [%] | inhibition at 10 µM [4] [%] | SMILES | Tyk2 JH1% Inhibition @ 10 μM [1] | JAK2 JH1% Inhibition @ 10 μM [4]
15 | > 9.70 | > 7.00 | < 4.90 | < 50 | < 50 | CNc1cc(Nc2cccc3ocnc23)nc2c(C(=O)N[C@@H]3CC[C@@H]3O)cnn12 [I-661] |  | 
16 | > 9.70 | > 7.00 | < 5.60 | < 50 | 50 to 70 | CNc1cc(Nc2cccc([C@@H]3CCCOC3)n2)nc2c(C(=O)N[C@@H]3CC[C@H]3O)cnn12 [I-665] |  | 
17 | > 9.70 | > 7.00 | < 4.90 | < 50 | < 50 | CNc1cc(Nc2cccc([C@H]3CCCOC3)n2)nc2c(C(=O)N[C@@H]3CC[C@H]3O)cnn12 [I-667] |  | 
18 | > 9.70 | > 7.00 | < 4.30 | < 50 | < 50 | CNc1cc(Nc2cc(Cl)cn(C3CCCOC3)c2=O)nc2c(C(=O)N[C@H]3C[C@H]3F)cnn12 (some centres unmarked) [I-693] |  | 
19 | > 9.70 | > 7.00 | < 4.30 | < 50 | < 50 | CNc1cc(Nc2cc(Cl)cn(C3CCCOC3)c2=O)nc2c(C(=O)NCC(C)(C)CO)cnn12 (centres unmarked) [I-694] |  | 
20 | > 9.70 | > 7.00 | < 4.30 | < 50 | < 50 | CNc1cc(Nc2cccc(N3CCC34COC4)n2)nc2c(C(=O)N[C@H]3C[C@H]3F)cnn12 [I-709] |  | 
21 | > 9.70 | 6.30 to 7.00 | < 4.30 | < 50 | < 50 | CNc1cc(Nc2cccnc2OC)nc2c(C(=O)NO)cnn12 [I-710, N-hydroxy-5-((2-methoxypyridin-3-yl)amino)-7-(methylamino)pyrazolo[1,5-a]pyrimidine-3-carboxamide] |  | 
22 | > 9.70 | > 7.00 | < 4.30 | < 50 | < 50 | CNc1cc(Nc2cc(Cl)cn(C3CCCOC3)c2=O)nc2c(C(=O)NC3CC3)cnn12 (centres unmarked) [I-711] |  | 
23 | > 9.70 | > 7.00 | < 4.90 | < 50 | < 50 | CNc1cc(Nc2cc(Cl)cn(C3CCOCC3)c2=O)nc2c(C(=O)N[C@H]3CC[C@@H]3O)cnn12 [I-712] |  | 
24 | > 9.70 | > 7.00 | < 5.60 | < 50 | < 50 | CNc1cc(Nc2cccn(-c3ncco3)c2=O)nc2c(C(=O)NC3CC3)cnn12 [I-715] |  | 
25 | > 9.70 | > 7.00 | < 5.60 | < 50 | < 50 | CNc1cc(Nc2cccn(-c3ncco3)c2=O)nc2c(C(=O)N[C@H]3C[C@H]3F)cnn12 [I-716] |  | 
26 | > 9.70 | > 7.00 | < 5.60 | < 50 | < 50 | CNc1cc(Nc2cccn([C@H]3CCCOC3)c2=O)nc2c(C(=O)N[C@@H]3CC[C@H]3O)cnn12 [I-725] |  | 
27 | > 9.70 | > 7.00 | < 5.60 | < 50 | < 50 | CNc1cc(Nc2cc(Cl)cn(C3CCCN(C)C3)c2=O)nc2c(C(=O)NC3CC3)cnn12 (centres unmarked) [I-740] |  | 
28 | > 9.70 | 6.30 to 7.00 | < 4.90 | < 50 | < 50 | CNc1cc(Nc2cccn(-c3cccnc3)c2=O)nc2c(C(=O)NC3CC3)cnn12 [I-747] |  | 
29 | > 9.70 | > 7.00 | < 5.60 | < 50 | < 50 | CNc1cc(Nc2cccc3ocnc23)nc2c(C(=O)NCC(C)(C)CO)cnn12 [I-750] |  | 
30 | > 9.70 | > 7.00 | < 5.60 |  |  | CNc1cc(Nc2cccc3ocnc23)nc2c(C(=O)N[C@@H]3CC[C@@H]3O)cnn12 [I-770] | A (percent inhibition at 10 μM lower than 50) | A (percent inhibition at 10 μM lower than 50)
31 | > 9.70 | > 7.00 | < 4.90 | < 50 | < 50 | CNc1cc(Nc2cc(Cl)cn([C@@H]3CCCOC3)c2=O)nc2c(C(=O)N[C@@H]3C[C@@H]3F)cnn12 [I-773] |  | 
32 | > 9.70 | > 7.00 | < 4.30 | < 50 | < 50 | CNc1cc(Nc2cc(Cl)cn([C@H]3CCCOC3)c2=O)nc2c(C(=O)NC3CC3)cnn12 [I-782] |  | 
33 | > 9.70 | > 7.00 | < 4.30 | < 50 | < 50 | CNc1cc(Nc2cc(Cl)cn([C@@H]3CCCOC3)c2=O)nc2c(C(=O)NC3CC3)cnn12 [I-783] |  | 
34 | > 9.70 | > 7.00 | < 4.90 | < 50 | < 50 | CNc1cc(Nc2cc(Cl)cn(C3CCN(C)CC3)c2=O)nc2c(C(=O)N[C@@H]3C[C@@H]3F)cnn12 [I-789] |  | 
